The subject of one assay is NOD mouse model. Description: NOD and Hashimoto's autoimmune animal models. As to conditions: compared to untreated animals. Type of assay: in vivo. The text has this: There are several animal based autoimmune models that can be used to test the use of the compounds disclosed herein for the treatment of an autoimmune disorder. Table 2 lists several exemplary immune-mediated disorders that can be treated using a peptide/MHC complex. For example, the non-obese diabetic (NOD) mouse model is an animal model system wherein animals develop diabetes with increasing age. To test the efficacy of a particular compound, groups of animals at the prediabetic stage (4 weeks or younger) are treated with, for example, LY303511, or LY303511 in combination with an additional immunosuppressive agent. The number of animals developing diabetes, and the rate that the anirnals develop diabetes, is then analyzed. Similarly, in the Hashimoto's mouse model system, to test the efficacy of a vaccine, groups of animals prior to the development of symptoms are treated with a treated with, for example, LY303511, or LY303511 in combination with an additional immunosuppressive agent. The number of animals developing the disease, and the rate that the animals develop the disease, are then analyzed.

The next assay concerns PC-3 cells. Kind of assay: PC-3 prostate adenocarcinoma tumor growth in nude mice. Format: in vivo, mouse. The procedure:
FIG. 6A-6B are bar graphs showing that LY303511 inhibits the growth of prostate adenocarcinoma cells (PC-3) cells in nude mice. LY303511, 10 mg/kg/d was administered intraperitoneally to attenuate PC-3 tumor growth in nude mice. The degree of growth inhibition was proportional to the duration of treatment with LY303511. […] FIG. 6C is a graph of a Kaplan-Mieir survival analysis. The analysis includes the premise that an event happens when a tumor reaches 300 mm^3. The y-axis depicts the probability that tumor size is less than 300 mm^3.
The effect of LY303511 on tumor growth was assessed in vivo. Human prostate adenocarcinoma cells (PC-3 cells, ATCC No. CTL-1435) were culture in vitro 5 before harvesting and implantation. For each mouse, 1×10^6 cells in 20% Matrigel™ (matrix) were implanted by subcutaneous injection into the flank. Mice were subdivided into six groups of ten mice each. Treatment protocols were begun (Day 1) when tumors reached approximately 150 mm^3, and tumor volumes (=Caliper length×width^2/2) were measured for thirty days at the indicated time points. Data were expressed as the average tumor volume +/− SEM for each treatment group and time point. The data is shown both in FIG. 6A and 6B. (*p<0.05 by one way ANOVA for inter-group comparisons at each time point. FIG. 6C is a Kaplan-meier analysis, representing the probability that tumor volumes are less than 300 mm^3 at any given time point (p<0.001 by log-rank test for inter-group comparison).

For a further assay, the target named is T1, recombinant CK2 (Homo sapiens, UniProt P68400).
T1 construct: purchased Upstate Biotechnology 17-132 (number of the activity kit, not of the enzyme)
T1 sequence (P68400 whole entry): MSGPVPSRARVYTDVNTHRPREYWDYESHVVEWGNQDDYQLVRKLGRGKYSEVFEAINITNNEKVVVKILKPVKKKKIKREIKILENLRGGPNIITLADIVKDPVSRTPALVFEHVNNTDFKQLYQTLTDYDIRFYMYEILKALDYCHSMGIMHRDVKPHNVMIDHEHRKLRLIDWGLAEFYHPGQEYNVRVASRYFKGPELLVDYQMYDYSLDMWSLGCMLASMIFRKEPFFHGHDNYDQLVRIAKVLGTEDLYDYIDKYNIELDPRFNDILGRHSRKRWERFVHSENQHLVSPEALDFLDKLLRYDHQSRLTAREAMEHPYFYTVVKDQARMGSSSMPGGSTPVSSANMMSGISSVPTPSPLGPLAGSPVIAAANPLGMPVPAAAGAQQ
T1 sequence (P67870 2-215 partner limits assumed): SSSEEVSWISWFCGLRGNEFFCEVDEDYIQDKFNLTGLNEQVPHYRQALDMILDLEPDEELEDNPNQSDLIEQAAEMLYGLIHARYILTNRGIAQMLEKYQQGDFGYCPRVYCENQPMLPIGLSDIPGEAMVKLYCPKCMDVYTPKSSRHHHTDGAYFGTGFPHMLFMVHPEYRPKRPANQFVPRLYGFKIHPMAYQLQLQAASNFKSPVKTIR
Kind of assay: Casein kinase 2 activity kit, 32P incorporation into substrate peptide. Type of assay: biochemical. The protocol:
FIGS. 5A-5B are bar graphs showing that LY303511 inhibits the cell cycle by causing combined G1 and G2/M arrest and that LY303511 inhibits CK2 activity. For the data shown in FIG. 5A, PASM cells were cultured in medium with FBS for 48 hours before the addition of 0-100 μM LY303511 without or with raparnycin, 400 ng/ml, for 24 hours. Cells were then harvested and incubated with propidium iodide for 2 hours before counting using a Becton-Dickson FACSCalibur. Data are the means (±SEM) of percentages of cells in G1, S, or G2/M phase of the cell cycle in three experiments with duplicate assays. *p<0.05 vs. DMSO control, or †p<0.05 vs. 10 μM LY303511, by Student's t—test. FIG. 5B is a bar graph showing that LY303511 or LY294002 inhibits CK2 in vitro. As per the manufacturer (Upstate Biotechnologies), 0 or 100 ng of recombinant CK2 were incubated with CK2 substrate peptide and ^32P-γ-ATP for 10 min with 1% DMSO or inhibitors as indicated. Data are the means of values for samples with inhibitors expressed as percentage of that for control, which was (mean±SEM) 0.2±0.03 pmol phosphate/100 ng protein/10 min. Data are from three experiments performed in duplicate. *p<0.05 by Student's t-test when compared to DMSO control.
One specific assay for casein kinase 2 activity is available commercially as a kit from Upstate Biotechnology (New York). The assay is based on phosphorylation of a specific substrate (CK-2 substrate peptide) using the transfer of the gamma-phosphate of ^32P-ATP by casein kinase 2 during a 10 minute incubation at 30° C. The phosphorylated substrate is then separated from the residual ^32P-ATP using P81 phosphocellulose paper, and quantified by scintillation counting.
Casein kinase 2 (CK2) activity (counts per rninute) was measured using a casein kinase 2 activity kit (Upstate Biotechnology catalogue number 17-132) by incubating recombinant 100 ng CK2, magnesium/ATP cocktail (10 mcCi ^32P-garnma-ATP, 0.675 micromoles MgCl2, 4.5 nmoles ATP), and 10 micromoles peptide substrate (arnino acid sequence RRRDDDSDDD (SEQ ID NO: 1) in 50 mcl assay buffer without or with the indicated concentrations of DMSO (1%), LY294002, LY303511, or rapamycin for 10 minutes at 30° C. Assays were stopped with 20 mcl of 40% trichloroacetic acid, and 25 mcl were spotted on P81 phosphocellulose paper squares before washing 3 times with 0.75% phosphoric acid, and once with acetone. 32P incorporation on the substrate peptide was detected by counting the phosphocellulose squares in 5 ml scintillation fluid using a Packard 100 Tri-Carb liquid scintillation counter.
Measurement of casein kinase 2 (CK2) activity: CK2 activity (counts per minute) was measured using a CK2 activity kit (Upstate, Charlottesville, Va.) by incubating 100 ng of recombinant CK2, rnagnesium/ATP cocktail (10 μCi ^32P-gamma-ATP, 0.675 μmol MgCl2, 4.5 nmol ATP), and 10 μmol peptide substrate (amino acid sequence RRRDDDSDDD) in 50 μl assay buffer (20 mM MOPS, pH 7.2, 5 mM EGTA, 25 mM β-glycerol phosphate, 1 mM sodium orthovanadate, 1 mM dithiothreitol) without or with the indicated concentrations of LY294002, LY303511, wortmannin or rapamycin in 1% DMSO for 10 min at 30° C. Assays were stopped with 20 μl of 40% trichloroacetic acid, and samples (25 μl) of supernatant were applied to P81 phosphocellulose paper squares, which were then washed three times with 0.75% phosphoric acid, and once with acetone. ^32P in the substrate peptide was quantified using a Packard 100 Tri-Carb liquid scintillation counter on phosphocellulose squares in 5 ml of scintillation fluid. Activity is expressed as pmol phosphate incorporated per 10 minutes. CK2 activity measured in the presence of inhibitors was divided by that measured for the DMSO control (=100% control).

Results on one molecule are retold here after patent US8044057B2, “Methods for suppressing an immune response or treating a proliferative disorder” (The United States of America as represented by the …, priority 2003, dated 2011).

A word on the IC50: it is the point on the concentration scale where inhibition reaches its midpoint. Take `O=c1cc(N2CCNCC2)oc2c(-c3ccccc3)cccc12` [LY303511, 2-(4-piperazinyl)-8-phenyl-4H-1-benzopyran-4-one]: the “progression or development of autoimmune disease” value in the assay with NOD mouse model was “delays the progression of the disease, or provides protection from developing the disease”. In the assay on PC-3 cells (10 mg/kg daily for 5, 10 or 20 days), the “degree of growth inhibition versus duration of treatment” value is recorded as “direct proportional to the duration of treatment”. Moreover, in the assay on PC-3 cells (10 mg/kg daily, FIG. 6C), the “tumor growth inhibition, 20 day course versus ten day course” value is “as effective at inhibiting tumor growth as a ten day course”. Moreover, in the assay with PC-3 cells (10 mg/kg intraperitoneally daily), the PC-3 tumor growth entry is given as “inhibited the growth of prostate adenocarcinoma cells”. In addition, the tumor burden entry with PC-3 cells (LY303511 10 mg/kg daily, Doxorubicin 10 mg/kg once on Day 1) is given as “decrease tumor burden”. The CK2 activity result on recombinant CK2 (100 ng recombinant CK2, 10 min at 30° C.) is “concentration-dependent inhibition of CK2 activity”. Further, the “preferential inhibition as compared to PI3K” value on recombinant CK2 (P70 S6 kinase and casein kinase 2 versus PI3K) was “preferentially inhibits P70 S6 kinase and casein kinase 2 as compared to PI3K”. For the same molecule, on recombinant CK2 (recombinant CK2 in vitro, read-out: IC50 for casein kinase 2), the IC50 was in the range of 10 to 100 µM.
